Earlier results in patent publication US11910793B2, “Multifunctional agricultural adjuvant compositions” (WINFIELD SOLUTIONS, LLC, priority 2019, dated 2024).

Settings: water at 0° C.

N.N.O=S(=O)(O)O [AMS, ammonium sulfate]
amount of AMS dissolvable in water: 41 wt. %
